# Results reported in US20260034111A1, “NOVEL HETEROCYCLES AS sPLA2-X INHIBITORS” (Cayman Chemical Company Incorporated, priority 2022, published 2026).
# Read-outs that look alike come from different tables or passages of the source.
# Tests used:
# Type in all cases: biochemical
# [1] = target: T1, recombinant human sPLA2-IIA enzyme (Homo sapiens, UniProt P14555); assay: sPLA2-IIA enzyme inhibition assay (thio-PC substrate, DTNB detection, absorbance 410 nm); settings: class symbols
# T1 construct: made in house; host or cells: E. coli
# T1 sequence (P14555 21-144): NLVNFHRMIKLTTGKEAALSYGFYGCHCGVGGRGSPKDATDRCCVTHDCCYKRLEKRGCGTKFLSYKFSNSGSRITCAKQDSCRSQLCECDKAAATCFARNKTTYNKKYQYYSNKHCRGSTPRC
# Source text: (§1) Screening Compounds for Inhibition of sPLA2-X, sPLA2-V, and sPLA2-IIA Enzyme Activity
# (§2) These sPLA2 enzymes hydrolyze the sn-2 acyl chains of glycerophospholipids, resulting in the release of a free fatty acid and a lysophospholipid. In the case of the thio-PC substrate, this enzymatic hydrolysis results in a free sulfhydryl group remaining on the lysophospholipid. This free sulfhydryl reacts with DTNB to produce the chromogenic product 5-nitro-2-thiobenzoic acid (TNB) which can be quantitated by absorbance at 410 nm. The amount of TNB produced reflects the hydrolytic activity of the enzyme.
# (§3) The recombinant human sPLA2 groups IIA, V, and X enzymes were expressed in E. coli and purified to >90% purity by standard biochemical methods.
# (§4) Procedure of Enzyme Inhibition for sPLA2-X • 1. […] Dilute the test compounds in 100% DMSO by half-log steps in a 96-well dilution plate using columns 1-11 (one compound per row). Column 12 contains DMSO alone with no compound. • 3. Prepare a 3.5 mM thio-PC substrate solution by drying down 7.2 mg of stock thio-PC in ethanol under a gentle stream of N2 gas. When dry, add 4 mL assay buffer (25 mM Tris, pH7.4; 100 mM KCl; 10 mM CaCl2; 0.1% Triton X-100) and warm in a 37° C. water bath for 20 minutes with intermittent vortexing. • 4. Prepare an “enzyme containing” reaction mix with the following components: 20.4 mL assay buffer; 2 mL DTNB (20 mM in 800 mM Tris, pH8.0); and 11.8 mg recombinant human sPLA2-X enzyme (>95% pure) diluted to a total of 0.8 mL assay buffer. • 5. Prepare a “no enzyme” reaction mix with the following components: 477 μL assay buffer and 45 μL DTNB. • 6. Dispense 58 μL “no enzyme” reaction mix into each of 8 wells (columns 23 and 24, rows M-P). • 7. Dispense 58 μL “enzyme containing” reaction mix into all remaining wells on the plate. • 8. From the 96-well compound dilution plate, add 2 μL from each well for each compound to each of 4 wells with “enzyme containing” reaction mix. Columns 23 and 24 on the assay plate will contain only DMSO (vehicle control). […] After compound addition, mix the contents of each well to ensure that the DMSO is evenly distributed in the well. • 9. Cover the plate and incubate in the dark at room temperature for 15 minutes. • 10. Add 10 μL of thio-PC substrate to all wells. The final concentration of thio-PC in the reactions is 0.5 mM. • 11. Cover the plate and incubate in the dark at room temperature for 30 minutes. • 12. Measure the absorbance of all wells at 410 nm. • 13. Determine the mean absorbance of the “no enzyme” wells. Subtract this value from the absorbance values determined for all other wells (these are now background corrected data). • 14. […] Procedure of Enzyme Inhibition for sPLA2-V • 1. […] Dilute the test compounds in 100% DMSO by half-log steps in a 96-well dilution plate using columns 1-11. Column 12 contains DMSO alone with no compound. • 3. Prepare a 3.5 mM thio-PC substrate solution by drying down 7.2 mg of stock thio-PC in ethanol under a gentle stream of N2 gas. When dry, add 4 mL assay buffer (25 mM Tris, pH7.4; 100 mM KCl; 10 mM CaCl2; 0.1% Triton X-100) and warm in a 37° C. water bath for 20 minutes with intermittent vortexing. • 4. Prepare an “enzyme containing” reaction mix with the following components: 20.4 mL assay buffer; 2 mL DTNB (20 mM in 800 mM Tris, pH8.0); and 12 mg recombinant human sPLA2-V enzyme (>95% pure) diluted to a total of 0.8 mL assay buffer. • 5. Prepare a “no enzyme” reaction mix with the following components: 477 μL assay buffer and […]. • 6. Dispense 58 μL “no enzyme” reaction mix into each of 8 wells (columns 23 and 24, rows M-P). • 7. Dispense 58 μL “enzyme containing” reaction mix into all remaining wells on the plate. • 8. From the 96-well compound dilution plate, add 2 μL from each well for each compound to each of 4 wells with “enzyme containing” reaction mix. Columns 23 and 24 on the assay plate will contain only DMSO (vehicle control).
# [2] = target: T2, recombinant human sPLA2-V enzyme (Homo sapiens, UniProt P39877); assay: sPLA2-V enzyme inhibition assay (thio-PC substrate, DTNB detection, absorbance 410 nm)
# T2 construct: made in house; host or cells: E. coli
# T2 sequence (P39877 21-138): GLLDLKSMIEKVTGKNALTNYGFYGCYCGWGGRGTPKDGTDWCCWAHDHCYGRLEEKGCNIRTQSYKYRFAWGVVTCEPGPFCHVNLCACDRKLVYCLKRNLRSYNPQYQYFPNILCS
# Source text: as §1, §2, §3, §4
# sPLA2-X protein = target: T3, sPLA2-X protein (Homo sapiens, UniProt O15496); assay: sPLA2-X enzyme inhibition assay (thio-PC substrate, DTNB detection, absorbance 410 nm); design: made in house; host or cells: E. coli; settings: class symbols
# T3 sequence (O15496 43-165): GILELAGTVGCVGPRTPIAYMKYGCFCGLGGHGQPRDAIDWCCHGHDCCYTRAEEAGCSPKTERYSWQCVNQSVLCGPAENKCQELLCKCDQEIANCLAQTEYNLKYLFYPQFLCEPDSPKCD
# Source text: as §1, §2, §3, §4
# [3] = read-out: sPLA2 Type IIa Inhibition (IC50; nM)
# [4] = class symbols, read-out: sPLA2 Type V Inhibition (IC50; nM)
# [5] = read-out: sPLA2 Type X Inhibition (IC50; nM)
# [6] = sPLA2 Type X Inhibition (IC50; nM)
SMILES,"IC50 [1, 3] [nM]","IC50 [2, 4] [nM]",IC50 (sPLA2-X protein; [5]) [nM],IC50 (sPLA2-X protein; [6]) [nM],IC50 ([1]; sPLA2 Type IIa Inhibition (IC50; nM)) [nM],"IC50 ([2]; sPLA2 Type V Inhibition (IC50; nM), class symbols) [nM]","IC50 ([2]; IC50 value for positive control, sPLA2-V, value the positive control should give per the procedure) [nM]","IC50 ([2]; numeric value, control, read-out: sPLA2 Type V Inhibition (IC50; nM)) [nM]"
"NC(=O)c1[se]c2ccc(OC(F)(F)F)cc2c1-c1cccc(C2(CC(=O)O)CC2)c1 [Compound 34, 2-(1-(3-(2-carbamoyl-5-(trifluoromethoxy)benzo[b]selenophen-3-yl)phenyl)cyclopropyl)acetic acid]",> 1000,1500 to 5000,–,20 to 50,–,–,–,–
"NC(=O)c1cc2ccc(OC(F)(F)F)cc2n1-c1ccc2occ(CC(=O)O)c2c1 [Compound 12, 2-(5-(2-carbamoyl-6-(trifluoromethoxy)-1H-indol-1-yl)benzofuran-3-yl)acetic acid]",> 1000,> 5000,50 to 200,–,–,–,–,–
NC(=O)c1cc2ccc(OC(F)(F)F)cc2n1-c1cncc(CCC(=O)O)c1 [Compound 53],> 1000,> 5000,50 to 200,–,–,–,–,–
"NC(=O)c1sc2ccc(OC(F)(F)F)cc2c1-c1ccc2c(c1)C(CC(=O)O)CO2 (stereo not shown) [Compound 7, 2-(5-(2-carbamoyl-5-(trifluoromethoxy)benzo[b]thiophen-3-yl)-2,3-dihydrobenzofuran-3-yl)acetic acid]",> 1000,> 5000,> 200,–,–,–,–,–
"O=C(O)c1cc2ccc(OC(F)(F)F)cc2n1-c1cccc(C2(C(=O)O)CC2)n1 [Compound 39, 1-(6-(1-carboxycyclopropyl)pyridin-2-yl)-6-(trifluoromethoxy)-1H-indole-2-carboxylic acid]",> 1000,> 5000,> 200,–,–,–,–,–
"NC(=O)c1cc2ccc(OC(F)(F)F)cc2n1-c1cccc(C2CC2C(=O)O)c1 (racemic) [Compound 15, trans-2-(3-(2-carbamoyl-6-(trifluoromethoxy)-1H-indol-1-yl)phenyl)cyclopropane-1-carboxylic acid]",> 1000,> 5000,20 to 50,–,–,–,–,–
"NC(=O)c1oc2ccc(OC(F)(F)F)cc2c1-c1cccc(CCC(=O)O)c1 [Compound 17, 3-(3-(2-carbamoyl-5-(trifluoromethoxy)benzofuran-3-yl)phenyl)propanoic acid]",> 1000,> 5000,> 200,–,–,–,–,–
"NC(=O)c1cc2ccc(OC(F)(F)F)cc2n1-c1cccc(CC2(C(=O)O)CCC2)c1 [Compound 10, 1-(3-(2-carbamoyl-6-(trifluoromethoxy)-1H-indol-1-yl)benzyl)cyclobutane-1-carboxylic acid]",500 to 1000,500 to 1500,20 to 50,–,–,–,–,–
"NC(=O)c1[se]c2ccc(OC(F)(F)F)cc2c1-c1cccc(C2CC2C(=O)O)n1 (racemic) [Compound 55, trans-(rac)-2-(6-(2-carbamoyl-5-(trifluoromethoxy)benzo[b]selenophen-3-yl)pyridin-2-yl)cyclopropane-1-carboxylic acid]",–,–,–,> 200,> 1000,> 5000,–,–
"NC(=O)c1cc2ccc(OC(F)(F)F)cc2n1-c1ccc2c(c1)C(CC(=O)O)CO2 (single isomer, unassigned; (-)) [Compound 1b, (−)-2-(5-(2-carbamoyl-6-(trifluoromethoxy)-1H-indol-1-yl)-2,3-dihydrobenzofuran-3-yl)acetic acid]",> 1000,–,> 200,–,–,–,–,–
"CCc1c(C(=O)C(N)=O)c2c(OCC(=O)O)cccc2n1Cc1ccccc1 [LY315920, Varespladib, reference compound]",–,–,–,–,–,–,~100,124

# Second part, led by results:
"IC50 [1, 3] [nM]","IC50 [2, 4] [nM]",IC50 (sPLA2-X protein; [5]) [nM],SMILES,IC50 (sPLA2-X protein; [6]) [nM],IC50 ([1]; sPLA2 Type IIa Inhibition (IC50; nM)) [nM],"IC50 ([2]; sPLA2 Type V Inhibition (IC50; nM), class symbols) [nM]","IC50 ([2]; IC50 value for positive control, sPLA2-V, value the positive control should give per the procedure) [nM]","IC50 ([2]; numeric value, control, read-out: sPLA2 Type V Inhibition (IC50; nM)) [nM]"
> 1000,> 5000,> 200,"NC(=O)c1cc2ccc(OC(F)(F)F)cc2n1-c1cccc(CNC(=O)C(F)(F)F)n1 [Compound 37, 1-(6-((2,2,2-trifluoroacetamido)methyl)pyridin-2-yl)-6-(trifluoromethoxy)-1H-indole-2-carboxamide]",–,–,–,–,–
> 1000,> 5000,> 200,"CC(=O)NCc1cccc(-n2c(C(N)=O)cc3ccc(OC(F)(F)F)cc32)n1 [Compound 32, 1-(6-(acetamidomethyl)pyridin-2-yl)-6-(trifluoromethoxy)-1H-indole-2-carboxamide]",–,–,–,–,–
> 1000,> 5000,50 to 200,"NC(=O)c1cc2ccc(OC(F)(F)F)cc2n1-c1cccc(N2CC(F)(F)C2)n1 [Compound 68, 1-(6-(3,3-difluoroazetidin-1-yl)pyridin-2-yl)-6-(trifluoromethoxy)-1H-indole-2-carboxamide]",–,–,–,–,–
> 1000,> 5000,> 200,"CS(=O)(=O)OCC(F)(F)c1cccc(-n2c(C(N)=O)cc3ccc(OC(F)(F)F)cc32)c1 [Compound 47, 2-(3-(2-carbamoyl-6-(trifluoromethoxy)-1H-indol-1-yl)phenyl)-2,2-difluoroethyl methanesulfonate]",–,–,–,–,–
> 1000,> 5000,> 200,"NC(=O)c1cc2ccc(OC(F)(F)F)cc2n1-c1cccc([C@H](N)CC(=O)O)c1 [Compound 42, (R)-3-amino-3-(3-(2-carbamoyl-6-(trifluoromethoxy)-1H-indol-1-yl)phenyl)propanoic acid]",–,–,–,–,–
> 1000,> 5000,> 200,"CC(C)(C)OC(=O)NCc1cccc(-n2c(C(N)=O)cc3ccc(OC(F)(F)F)cc32)n1 [Compound 26, tert-butyl ((6-(2-carbamoyl-6-(trifluoromethoxy)-1H-indol-1-yl)pyridin-2-yl)methyl)carbamate]",–,–,–,–,–
< 200,> 5000,< 20,"NC(=O)c1cc2ccc(OC(F)(F)F)cc2n1-c1cccc(C2CC2C(=O)O)n1 (single isomer, unassigned) [Compound 28e, cis-(+)-2-(6-(2-carbamoyl-6-(trifluoromethoxy)-1H-indol-1-yl)pyridin-2-yl)cyclopropane-1-carboxylic acid]",–,–,–,–,–
> 1000,> 5000,20 to 50,"NC(=O)c1cc2ccc(OC(F)(F)F)cc2n1-c1cccc(S(=O)(=O)CC(=O)O)n1 [Compound 45, 2-((6-(2-carbamoyl-6-(trifluoromethoxy)-1H-indol-1-yl)pyridin-2-yl)sulfonyl)acetic acid]",–,–,–,–,–
> 1000,> 5000,50 to 200,"CC(C)(Cc1cccc(-n2c(C(N)=O)cc3ccc(OC(F)(F)F)cc32)n1)C(=O)O [Compound 8, 3-(6-(2-carbamoyl-6-(trifluoromethoxy)-1H-indole-1-yl)pyridin-2-yl)-2,2-dimethylpropanoic acid]",–,–,–,–,–
